ChEMBL document CHEMBL4024727, “Synthesis and antimycobacterial screening of new thiazolyl-oxazole derivatives” (Eur J Med Chem, 2017)

Legend:
Assay type in all cases: functional
[1] = test system: Mycobacterium tuberculosis; assay: Growth inhibition of Mycobacterium tuberculosis H37Ra ATCC 25177 at 10 ug/ml by XTT dye based two-fold dilution method relative to control; settings: read-out: GI
Pseudomonas fluorescens [2] = assay: Growth inhibition of Pseudomonas fluorescens NCIM 2059 at 1 ug/ml measured after 8 hrs relative to control; settings: NCIM 2059, 8 h, read-out: GI
Bacillus subtilis [3] = assay: Antibacterial activity against Bacillus subtilis NCIM 2162 measured after 12 hrs; settings: NCIM 2162, 12 h
Bacillus subtilis [4] = assay: Growth inhibition of Bacillus subtilis NCIM 2162 at 1 ug/ml measured after 12 hrs relative to control; settings: NCIM 2162, 12 h, read-out: GI
Staphylococcus aureus [5] = assay: Growth inhibition of Staphylococcus aureus NCIM 2602 at 1 ug/ml measured after 12 hrs relative to control; settings: NCIM 2602, 12 h, read-out: GI
Staphylococcus aureus [6] = assay: Antibacterial activity against Staphylococcus aureus NCIM 2602 measured after 12 hrs; settings: NCIM 2602, 12 h
Escherichia coli [7] = assay: Growth inhibition of Escherichia coli NCIM 2576 at 10 ug/ml measured after 8 hrs relative to control; settings: NCIM 2576, 8 h, read-out: GI
Escherichia coli [8] = assay: Growth inhibition of Escherichia coli NCIM 2576 at 1 ug/ml measured after 8 hrs relative to control; settings: NCIM 2576, 8 h, read-out: GI
Pseudomonas fluorescens [9] = assay: Growth inhibition of Pseudomonas fluorescens NCIM 2059 at 10 ug/ml measured after 8 hrs relative to control; settings: NCIM 2059, 8 h, read-out: GI
[10] = test system: Mycobacterium tuberculosis; assay: Growth inhibition of Mycobacterium tuberculosis H37Ra ATCC 25177 at 30 ug/ml by XTT dye based two-fold dilution method relative to control; settings: read-out: GI
[11] = test system: Mycobacterium tuberculosis; assay: Antitubercular activity against Mycobacterium tuberculosis H37Ra ATCC 25177 dormant stage by XTT dye based two-fold dilution method
Staphylococcus aureus [12] = assay: Growth inhibition of Staphylococcus aureus NCIM 2602 at 30 ug/ml measured after 12 hrs relative to control; settings: NCIM 2602, 12 h, read-out: GI
Escherichia coli [13] = assay: Antibacterial activity against Escherichia coli NCIM 2576 measured after 8 hrs; settings: NCIM 2576, 8 h
Bacillus subtilis [14] = assay: Growth inhibition of Bacillus subtilis NCIM 2162 at 10 ug/ml measured after 12 hrs relative to control; settings: NCIM 2162, 12 h, read-out: GI
Escherichia coli [15] = assay: Growth inhibition of Escherichia coli NCIM 2576 at 30 ug/ml measured after 8 hrs relative to control; settings: NCIM 2576, 8 h, read-out: GI
Bacillus subtilis [16] = assay: Growth inhibition of Bacillus subtilis NCIM 2162 at 30 ug/ml measured after 12 hrs relative to control; settings: NCIM 2162, 12 h, read-out: GI
[17] = test system: Mycobacterium tuberculosis; assay: Growth inhibition of Mycobacterium bovis BCG ATCC 35743 at 1 ug/ml by nitrate reductase based two-fold dilution assay relative to control; settings: BCG str. ATCC 35743, read-out: GI
Staphylococcus aureus [18] = assay: Growth inhibition of Staphylococcus aureus NCIM 2602 at 10 ug/ml measured after 12 hrs relative to control; settings: NCIM 2602, 12 h, read-out: GI
Pseudomonas fluorescens [19] = assay: Growth inhibition of Pseudomonas fluorescens NCIM 2059 at 30 ug/ml measured after 8 hrs relative to control; settings: NCIM 2059, 8 h, read-out: GI
[20] = test system: Mycobacterium tuberculosis; assay: Growth inhibition of Mycobacterium tuberculosis H37Ra ATCC 25177 at 3 ug/ml by XTT dye based two-fold dilution method relative to control; settings: read-out: GI
[21] = test system: Mycobacterium tuberculosis; assay: Growth inhibition of Mycobacterium bovis BCG ATCC 35743 at 30 ug/ml by nitrate reductase based two-fold dilution assay relative to control; settings: BCG str. ATCC 35743, read-out: GI
[22] = test system: Mycobacterium tuberculosis; assay: Growth inhibition of Mycobacterium bovis BCG ATCC 35743 at 10 ug/ml by nitrate reductase based two-fold dilution assay relative to control; settings: BCG str. ATCC 35743, read-out: GI
Pseudomonas fluorescens [23] = assay: Antibacterial activity against Pseudomonas fluorescens NCIM 2059 measured after 8 hrs; settings: NCIM 2059, 8 h
[24] = test system: Mycobacterium tuberculosis; assay: Antitubercular activity against Mycobacterium bovis BCG ATCC 35743 dormant stage by nitrate reductase based two-fold dilution assay; settings: BCG str. ATCC 35743

Row | Structure (SMILES) | inhibition of growth at 10 µg/mL [1] | inhibition of growth at 1 µg/mL (Pseudomonas fluorescens [2]) | MIC (Bacillus subtilis [3]) | inhibition of growth at 1 µg/mL (Bacillus subtilis [4]) | inhibition of growth at 1 µg/mL (Staphylococcus aureus [5]) | MIC (Staphylococcus aureus [6]) | inhibition of growth at 10 µg/mL (Escherichia coli [7]) | inhibition of growth at 1 µg/mL (Escherichia coli [8]) | inhibition of growth at 10 µg/mL (Pseudomonas fluorescens [9]) | inhibition of growth at 30 µg/mL [10] | IC50 [11] | MIC90 [11] | inhibition of growth at 30 µg/mL (Staphylococcus aureus [12]) | MIC (Escherichia coli [13]) | inhibition of growth at 10 µg/mL (Bacillus subtilis [14]) | inhibition of growth at 30 µg/mL (Escherichia coli [15]) | inhibition of growth at 30 µg/mL (Bacillus subtilis [16]) | inhibition of growth at 1 µg/mL [17] | inhibition of growth at 10 µg/mL (Staphylococcus aureus [18]) | inhibition of growth at 30 µg/mL (Pseudomonas fluorescens [19]) | other results
1 | Cc1nc(-c2ccccc2)oc1-c1csc(-c2ccc(Br)cc2)n1 | 17% | 64.5% | > 100 µM | 65% | 67.8% | > 100 µM | 79.1% | 67.7% | 74.2% | 33% | > 100 µM | > 100 µM | 85.2% | > 100 µM | 74.3% | 85.6% | 88% | 31% | 72.2% | 85.2% | inhibition of growth at 3 µg/mL [20]: 11%; inhibition of growth at 30 µg/mL [21]: 39%; inhibition of growth at 10 µg/mL [22]: 36%; MIC (Pseudomonas fluorescens [23]): > 100 µM; IC50 [24]: > 100 µM; MIC90 [24]: > 100 µM
2 | Cc1nc(-c2ccc(F)cc2)oc1-c1csc(-c2ccccc2)n1 | 13% | 22.4% | > 100 µM | 21% | 24% | > 100 µM | 47.8% | 21.3% | 41.9% | 31% | > 100 µM | > 100 µM | 58.8% | > 100 µM | 47.8% | 50.7% | 53.3% | 28% | 40.7% | 53.1% | inhibition of growth at 3 µg/mL [20]: 13%; inhibition of growth at 30 µg/mL [21]: 33%; inhibition of growth at 10 µg/mL [22]: 32%; MIC (Pseudomonas fluorescens [23]): > 100 µM; IC50 [24]: > 100 µM; MIC90 [24]: > 100 µM
3 | Cc1nc(-c2ccccc2)oc1-c1csc(-c2ccc(F)cc2)n1 | 13% | 31.8% | > 100 µM | 37.7% | 34.6% | > 100 µM | 47.2% | 38.4% | 45.1% | 13% | > 100 µM | > 100 µM | 60.5% | > 100 µM | 49.4% | 58.5% | 60.6% | 11% | 41.7% | 61% | inhibition of growth at 3 µg/mL [20]: 8%; inhibition of growth at 30 µg/mL [21]: 27%; inhibition of growth at 10 µg/mL [22]: 16%; MIC (Pseudomonas fluorescens [23]): > 100 µM; IC50 [24]: > 100 µM; MIC90 [24]: > 100 µM
4 | Cc1nc(-c2ccc(F)cc2)oc1-c1csc(Cc2ccc(Cl)cc2)n1 | 25% | 4.37% | > 100 µM | 9.95% | 5.76% | > 100 µM | 16.1% | 7.55% | 20.1% | 39% | > 100 µM | > 100 µM | 21.1% | > 100 µM | 13.9% | 21% | 27.6% | 24% | 14.1% | 20.9% | inhibition of growth at 3 µg/mL [20]: 9%; inhibition of growth at 30 µg/mL [21]: 42%; inhibition of growth at 10 µg/mL [22]: 32%; MIC (Pseudomonas fluorescens [23]): > 100 µM; IC50 [24]: > 100 µM; MIC90 [24]: > 100 µM
5 | Cc1ccc(-c2nc(-c3oc(-c4ccccc4)nc3C)cs2)cc1 | 15% | 2.57% | > 100 µM | 3.92% | 5.6% | > 100 µM | 11.1% | 7.19% | 18.6% | 17% | > 100 µM | > 100 µM | 31.5% | > 100 µM | 15.9% | 33.8% | 33.4% | 25% | 14.9% | 30.8% | inhibition of growth at 3 µg/mL [20]: 13%; inhibition of growth at 30 µg/mL [21]: 34%; inhibition of growth at 10 µg/mL [22]: 34%; MIC (Pseudomonas fluorescens [23]): > 100 µM; IC50 [24]: > 100 µM; MIC90 [24]: > 100 µM
6 | Cc1nc(-c2ccc(F)cc2)oc1-c1csc(-c2cccc(Cl)c2)n1 | 29% | 24.8% | > 100 µM | 28.8% | 28.5% | > 100 µM | 40.5% | 23.4% | 38.3% | 32% | > 100 µM | > 100 µM | 48.1% | > 100 µM | 40.6% | 49.5% | 50.8% | 23% | 35.7% | 48.3% | inhibition of growth at 3 µg/mL [20]: 29%; inhibition of growth at 30 µg/mL [21]: 32%; inhibition of growth at 10 µg/mL [22]: 24%; MIC (Pseudomonas fluorescens [23]): > 100 µM; IC50 [24]: > 100 µM; MIC90 [24]: > 100 µM
